Results from PMC5761474 (Journal of Pharmaceutical Analysis, 2014).

Test: Pharmacokinetic study of DRV in rats after oral dosing
Format: in vivo, male Wistar rats
[1] = male, Wistar, rat, plasma, po, 50 mg/kg
[2] = oral 50 mg/kg, rats, n=6, mean±SD

CC(C)CN(C[C@@H](O)[C@H](Cc1ccccc1)NC(=O)O[C@H]1CO[C@H]2OCC[C@H]21)S(=O)(=O)c1ccc(N)cc1 [DRV, darunavir]
AUC(0-inf) [1]: 1060 ± 49 ng·h/mL | AUC(0-t) [1]: 1010 ± 48 ng·h/mL | Cmax [1]: 130 ± 4 ng/mL | MRT inf [1]: 7.89 ± 0.83 h | Tmax [1]: 3 ± 0.28 h | AUMC0−t [2]: 6518±386 ng h^2/mL | AUMC0−∞ [2]: 8408±914 ng h^2/mL
